Measurements from US20240150423A1, “GLP-1 ANALOGUE-MODIFIED DIMERS WITH DIFFERENT CONFIGURATIONS, PREPARATION METHOD THEREOF, AND APPLICATION THEREOF IN TREATMENT OF TYPE II DIABETES” (Nanjing Finepeptide Biopharmaceutical Co.,Ltd, priority 2019, published 2024).
Non-standard residues stand in square brackets, D forms with d. No end group written: not given here. bAib = not defined here; PEG = not defined here; βAla = NCCC(=O)O

Test system: Normal Kunming (KM) mice
Experiment: multiple OGTT (mOGTT): hypoglycemic duration after a single administration
Format: in vivo
Conditions: single injection at the same dose (1.126 nmol), subcutaneous; for Hypoglycemic: monomeric peptides
Text: • 1. Methods: Normal Kunming (KM) mice (purchased from Guangdong Animal Center) were used for oral glucose tolerance test (OGTT) to obtain the hypoglycemic activity and durability of drug. […] The blood glucose meter and blood glucose test paper were from Bayer […]. The average blood glucose of each group was used as an evaluation standard: When the average blood glucose of experimental group was higher than that of the NaCl control group for two times, the measurement stopped and the hypoglycemic period compared to the blank control group was the effective duration. • 2. Results • 2.1 single OGTTs: after a single administration, the mice were orally administered glucose once and measured the blood glucose from the tail blood at 0, 10, 20, 40, 60 and 120 min. […] The duration of each monomer group was about 1⁄2-1⁄4 of the duration of its corresponding dimer group. […] Therefore, the 2G3 peptide was selected for treating type II diabetes (T2D) in vivo and subsequent experiments.

Substance | Hypoglycemic duration | other results
2G4 series 38: disulfide-linked homodimer of monomer SEQ ID NO: 38 (HXEGTFTSDVSCYLEGQAAXEFIAWLVRGRG; disulfide-linked homodimer; Sequence is synthesized; (2)..(2) Xaa is bAib; (20)..(20) Xaa is 26Lys[N-e-(N-a-oleoyl-L-g-glutamyl)]; (31)..(31) N-terminal) | 17 days | 
2G4 series 39: disulfide-linked homodimer of monomer SEQ ID NO: 39 (HXEGTFTSDVSCYLEGQAAXEFIAWLVRGRG; disulfide-linked homodimer; Sequence is synthesized; (2)..(2) Xaa is bAla; (20)..(20) Xaa is 26Lys[N-e-(N-a-oleoyl-L-g-glutamyl)]; (31)..(31) N-terminal) | 16 days | 
2G5 series 40: disulfide-linked homodimer of monomer SEQ ID NO: 40 (HAEGTFTSDVSCYLEGQAAXEFIAWLVXGRG; disulfide-linked homodimer; Sequence is synthesized; (20)..(20) Xaa is 26Lys[N-e-(N-a-palmitoyl-L-g-glutamyl)]; (28)..(28) Xaa is 26Lys[N-e-(N-a-palmitoyl-L-g-glutamyl)]; (31)..(31) C-terminal) |  | Hypoglycemic duration (days): 3 (2G5 peptide) days
2G5 series 41: disulfide-linked homodimer of monomer SEQ ID NO: 41 (HAEGTFTSDVSCYLEGQAAXEFIAWLVXGRG; disulfide-linked homodimer; Sequence is synthesized; (20)..(20) Xaa is 26Lys[N-e-(N-a-palmitoyl-L-g-glutamyl)]; (28)..(28) Xaa is 26Lys[N-e-(N-a-palmitoyl-L-g-glutamyl)]; (31)..(31) N-terminal) | 5 days | 
2G5 series 43: disulfide-linked homodimer of monomer SEQ ID NO: 43 (HXEGTFTSDVSCYLEGQAAXEFIAWLVXGRG; disulfide-linked homodimer; Sequence is synthesized; (2)..(2) Xaa is bAib; (20)..(20) Xaa is 26Lys[N-e-(N-a-palmitoyl-L-g-glutamyl)]; (28)..(28) Xaa is 26Lys[N-e-(N-a-palmitoyl-L-g-glutamyl)]; (31)..(31) N-terminal) | 7 days | 
2G5 series 44: disulfide-linked homodimer of monomer SEQ ID NO: 44 (HXEGTFTSDVSCYLEGQAAXEFIAWLVXGRG; disulfide-linked homodimer; Sequence is synthesized; (2)..(2) Xaa is bAla; (20)..(20) Xaa is 26Lys[N-e-(N-a-palmitoyl-L-g-glutamyl)]; (28)..(28) Xaa is 26Lys[N-e-(N-a-palmitoyl-L-g-glutamyl)]; (31)..(31) N-terminal) | 6 days | 
2G6 series 49: disulfide-linked homodimer of monomer SEQ ID NO: 49 (HXEGTFTSDVSCYLEGQAAXEFIAWLVRGRG; disulfide-linked homodimer; Sequence is synthesized; (2)..(2) Xaa is bAib; (20)..(20) Xaa is 26Lys[N-e-(N-a-oleoyl-L-g-glutamyl)]; (31)..(31) N-terminal) | 17 days | 
2G6 series 50: disulfide-linked homodimer of monomer SEQ ID NO: 50 (HXEGTFTSDVSCYLEGQAAXEFIAWLVRGRG; disulfide-linked homodimer; Sequence is synthesized; (2)..(2) Xaa is bAla; (20)..(20) Xaa is 26Lys[N-e-(N-a-oleoyl-L-g-glutamyl)]; (31)..(31) N-terminal) | 16 days | 
2G7 series 54: disulfide-linked homodimer of monomer SEQ ID NO: 54 (H[bAib]EGTFTSDVSCYLEGQAAKEFIAWLVR[bAib]R-NH2; reading uncertain; also: disulfide-linked homodimer, disulfide at 12, other end not in the chain, printed as His-βAib-Glu-Gly-Thr-Phe-Thr-Ser-Asp-Val-Ser-Cys-Tyr-Leu-Glu-Gly-Gln-Ala-Ala-Lys-Glu-Phe-Ile-Ala-Trp-Leu-Val-Arg-βAib-Arg-NH2) | 5 days | 
2G7 series 55: disulfide-linked homodimer of monomer SEQ ID NO: 55 (H[βAla]EGTFTSDVSCYLEGQAAKEFIAWLVR[βAla]R-NH2; also: disulfide-linked homodimer, disulfide at 12, other end not in the chain) | 4 days | 
2G8 series 56: disulfide-linked homodimer of monomer SEQ ID NO: 56 (HAEGTFTCDVSSYLEGQAAXEFIAWLVRGRG; disulfide-linked homodimer; Sequence is synthesized; (20)..(20) Xaa is 26Lys[N-e-(N-a-palmitoyl-L-g-glutamyl)]; (31)..(31) C-terminal) | 2 days | 
2G8 series 57: disulfide-linked homodimer of monomer SEQ ID NO: 57 (HAEGTFTCDVSSYLEGQAAXEFIAWLVRGRG; disulfide-linked homodimer; Sequence is synthesized; (20)..(20) Xaa is 26Lys[N-e-(N-a-palmitoyl-L-g-glutamyl)]; (31)..(31) N-terminal) | 5 days | 
2G8 series 58: disulfide-linked homodimer of monomer SEQ ID NO: 58 (HAEGTFTCDVSSYLEGQAAXEFIAWLVRGRG; disulfide-linked homodimer; Sequence is synthesized; (20)..(20) Xaa is 26Lys[N-e-(N-a-oleoyl-L-g-glutamyl)]; (31)..(31) C-terminal) | 3 days | 
2G8 series 59: disulfide-linked homodimer of monomer SEQ ID NO: 59 (HAEGTFTCDVSSYLEGQAAXEFIAWLVRGRG; disulfide-linked homodimer; Sequence is synthesized; (20)..(20) Xaa is 26Lys[N-e-(N-a-oleoyl-L-g-glutamyl)]; (31)..(31) N-terminal) | 5 days | 
2G8 series 66: disulfide-linked homodimer of monomer SEQ ID NO: 66 (HXEGTFTCDVSSYLEGQAAXEFIAWLVRGRG; disulfide-linked homodimer; Sequence is synthesized; (2)..(2) Xaa is bAib; (20)..(20) Xaa is 26Lys[N-e-(N-a-oleoyl-L-g-glutamyl)]; (31)..(31) N-terminal) | 8 days | 
2G8 series 67: disulfide-linked homodimer of monomer SEQ ID NO: 67 (H[bAib]EGTFTCDVSSYLEGQAAKEFIAWLVR[bAib]R; reading uncertain; also: disulfide-linked homodimer of two chains, disulfide at 8, other end not in the chain) | 3 days | 
2G8 series 68: disulfide-linked homodimer of monomer SEQ ID NO: 68 (HXEGTFTCDVSSYLEGQAAXEFIAWLVRGRG; disulfide-linked homodimer; Sequence is synthesized; (2)..(2) Xaa is bAla; (20)..(20) Xaa is 26Lys[N-e-(N-a-oleoyl-L-g-glutamyl)]; (31)..(31) N-terminal) | 7 days | 
2G8 series 69: disulfide-linked homodimer of monomer SEQ ID NO: 69 (H[βAla]EGTFTCDVSSYLEGQAAKEFIAWLVR[βAla]R; also: disulfide-linked homodimer) | 3 days | 
2G9 series 71: disulfide-linked homodimer of PEG-modified monomer SEQ ID NO: 71 (HAEGTFTSDVSCYLEGQAAKEFIAWLVRGR-{NH2-PEG}; reading uncertain; also: disulfide-linked homodimer) | 5 days | 
His-Ala-Glu-Gly-Thr-Phe-Thr-Cys-Asp-Val-Ser-Ser-Tyr-Leu-Glu-Gly-Gln-Ala-Ala-Lys[N-α-(N-α-oleoyl-L-γ-glutamyl)]-Glu-Phe-Ile-Ala-Trp-Leu-Val-Arg-Gly-Arg-Gly-NH2 (HAEGTFTCDVSSYLEGQAAXEFIAWLVRGRG; oleoyl-gamma-Glu on Lys; C-terminal amide; Sequence is synthesized; (20)..(20) Xaa is 26Lys[N-e-(N-a-oleoyl-L-g-glutamyl)]; (31)..(31) N-terminal) [G8 series 59] |  | Hypoglycemic: 3 days
His-Ala-Glu-Gly-Thr-Phe-Thr-Cys-Asp-Val-Ser-Ser-Tyr-Leu-Glu-Gly-Gln-Ala-Ala-Lys[N-ϵ-(N-α-Palmitoyl-L-γ-glutamyl)]-Glu-Phe-Ile-Ala-Trp-Leu-Val-Arg-Gly-Arg-Gly-NH2 (HAEGTFTCDVSSYLEGQAAXEFIAWLVRGRG; palmitoyl-gamma-Glu on Lys; C-terminal amide; Sequence is synthesized; (20)..(20) Xaa is 26Lys[N-e-(N-a-palmitoyl-L-g-glutamyl)]; (31)..(31) N-terminal) [G8 series 57] |  | Hypoglycemic: 2 days
